Measured values taken from patent US10196425B2, “Peptide compositions” (RHYTHM PHARMACEUTICALS, INC., priority 2013, dated 2019).
Like-named read-outs stand apart in the source and are kept apart here. Bridge positions count the residues as written; N and C are the ends. Square brackets hold non-standard residues; d marks the D form. Peptide text beside a SMILES is read from it.

Assays:
Assay type in all cases: cell-based
MC3R = MC3R (Homo sapiens, UniProt P41968); experiment: cAMP assay (β-galactosidase reporter, cAMP Hunter), MC3R; conditions: for Ratios of EC50 values MC ¾: EC50(MC3R)/EC50(MC4R)
Sequence of MC3R (P41968 whole entry): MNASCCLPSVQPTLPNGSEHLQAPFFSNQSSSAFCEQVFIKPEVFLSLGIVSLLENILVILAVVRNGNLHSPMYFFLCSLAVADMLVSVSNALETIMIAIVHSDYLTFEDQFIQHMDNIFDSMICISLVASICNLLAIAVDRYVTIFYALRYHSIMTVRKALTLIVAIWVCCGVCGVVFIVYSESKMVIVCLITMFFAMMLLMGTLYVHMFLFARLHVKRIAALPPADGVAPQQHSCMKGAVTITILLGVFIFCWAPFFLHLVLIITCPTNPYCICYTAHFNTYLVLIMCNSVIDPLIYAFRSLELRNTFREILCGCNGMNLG
Source text: (§1) cAMP Accumulation Measurement Via a β-Galactosidase (β-Gal) Reporter System
(§2) A chemiluminescence readout system that uses an enzyme fragment complementation (EFC) system with β-galactosidase (β-Gal) as the functional reporter system was used. This assay system for various melanocortin receptor systems is commercially available (cAMP Hunter GPCR assay system, Discoverx Corp, Fremont, Calif.). This assay utilizes the β-Gal enzyme that is split into two complementary portions; EA for Enzyme Acceptor and ED for Enzyme Donor. In the assay, the ED portion fused to cAMP is made to compete with cAMP generated by cells for binding to a cAMP-specific antibody. The EA is then added to form active β-Gal with any unbound ED-cAMP.
(§3) Briefly, 10000 cells per well are plated overnight and each well (cells incubated with 10 μl assay buffer) is then incubated with 4× serial concentration of the test compound in the cell assay buffer (5 μL) and cAMP antibody reagent (5 μL) for 30 min at 37° C. The cell lysis buffer (20 μL) containing ED-cAMP coupled enzyme fragment and the reporter substrate (Emerald II-Galacton Star, 5:1) is then added and incubated for 60 min at room temperature. Next, 20 μL of EA β-Gal fragment reagent is added.

MC1R = MC1R (Homo sapiens, UniProt Q01726); experiment: cAMP assay (β-galactosidase reporter, cAMP Hunter), MC1R; conditions: for Ratios of EC50 values MC ¼: EC50(MC1R)/EC50(MC4R)
Sequence of MC1R (Q01726 whole entry): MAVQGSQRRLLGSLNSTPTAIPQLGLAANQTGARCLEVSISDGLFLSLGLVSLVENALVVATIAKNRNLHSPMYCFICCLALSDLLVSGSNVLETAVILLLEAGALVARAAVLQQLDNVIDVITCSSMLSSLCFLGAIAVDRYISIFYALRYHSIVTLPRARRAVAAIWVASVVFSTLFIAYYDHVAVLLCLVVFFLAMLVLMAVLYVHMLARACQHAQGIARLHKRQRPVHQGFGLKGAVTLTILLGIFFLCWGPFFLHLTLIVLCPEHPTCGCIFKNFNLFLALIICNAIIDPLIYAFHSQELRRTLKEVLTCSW
Source text: as §1, §2, §3

MC5R = MC5R (Homo sapiens, UniProt P33032); experiment: cAMP assay (β-galactosidase reporter, cAMP Hunter), MC5R; conditions: for Ratios of EC50 values MC 5/4: EC50(MC5R)/EC50(MC4R)
Sequence of MC5R (P33032 whole entry): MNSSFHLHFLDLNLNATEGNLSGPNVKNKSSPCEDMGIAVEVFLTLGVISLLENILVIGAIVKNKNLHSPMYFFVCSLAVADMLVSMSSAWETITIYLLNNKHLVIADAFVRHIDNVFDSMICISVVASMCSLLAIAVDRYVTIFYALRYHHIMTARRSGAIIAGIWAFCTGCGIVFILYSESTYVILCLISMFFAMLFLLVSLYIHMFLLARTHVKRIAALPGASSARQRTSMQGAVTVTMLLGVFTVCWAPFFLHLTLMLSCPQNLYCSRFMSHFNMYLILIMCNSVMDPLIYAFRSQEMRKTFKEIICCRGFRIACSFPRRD
Source text: as §1, §2, §3

MC4R = MC4R (Homo sapiens, UniProt P32245); experiment: cAMP assay (β-galactosidase reporter, cAMP Hunter), MC4R
Sequence of MC4R (P32245 whole entry): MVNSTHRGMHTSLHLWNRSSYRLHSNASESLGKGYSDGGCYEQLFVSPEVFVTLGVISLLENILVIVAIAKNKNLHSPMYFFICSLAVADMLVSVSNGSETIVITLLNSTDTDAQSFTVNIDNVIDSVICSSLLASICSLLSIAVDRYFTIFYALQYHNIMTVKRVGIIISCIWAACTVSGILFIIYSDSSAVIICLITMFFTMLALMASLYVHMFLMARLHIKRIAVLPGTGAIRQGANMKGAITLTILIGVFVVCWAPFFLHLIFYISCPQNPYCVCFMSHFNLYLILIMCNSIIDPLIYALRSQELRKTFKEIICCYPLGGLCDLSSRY
Source text: as §1, §2, §3

[1] = agonist cAMP stimulation, read-out: cAMP Assay (EC-50) MC3R
[2] = agonist cAMP stimulation, read-out: cAMP Assay (EC-50) MC1R
[3] = agonist cAMP stimulation, read-out: cAMP Assay (EC-50) MC5R
[4] = agonist cAMP stimulation, read-out: cAMP Assay (EC-50) MC4R

| SMILES | Ratios of EC50 values MC ¾ (MC3R) | EC50 (MC3R; [1]) [nM] | Ratios of EC50 values MC ¼ (MC1R) | EC50 (MC1R; [2]) [nM] | Ratios of EC50 values MC 5/4 (MC5R) | EC50 (MC5R; [3]) [nM] | EC50 (MC4R; [4]) [nM] | EC50 (MC3R) [nM] | EC50 (MC1R) [nM] | EC50 (MC5R) [nM] | EC50 (MC4R) [nM] |
| --- | --- | --- | --- | --- | --- | --- | --- | --- | --- | --- | --- |
| CC(=O)N[C@@H](CCCNC(=N)N)C(=O)N[C@H]1CSSC[C@@H](C(N)=O)NC(=O)[C@H](Cc2c[nH]c3ccccc23)NC(=O)[C@H](CCCNC(=N)N)NC(=O)[C@@H](Cc2ccccc2)NC(=O)[C@H](Cc2c[nH]cn2)NC(=O)[C@@H](CC(C)C)NC1=O [Compound 1, Ac-Arg-cyclo[Cys-D-Leu-His-D-Phe-Arg-Trp-Cys]-NH2] | 1.13 | 0.79 | 0.68 | 0.47 | 130 | 91 | 0.7 | – | – | – | – |
| CC(=O)N[C@@H](CCCNC(=N)N)C(=O)N[C@H]1CSSC[C@@H](C(N)=O)NC(=O)[C@H](Cc2c[nH]c3ccccc23)NC(=O)[C@H](CCCNC(=N)N)NC(=O)[C@@H](Cc2ccccc2)NC(=O)[C@H](Cc2c[nH]cn2)NC(=O)[C@@H](C(C)(C)C)NC1=O [Compound 3, Ac-Arg-cyclo[Cys-D-Tle-His-D-Phe-Arg-Trp-Cys]-NH2] | 1 | 0.7 | 1 | 1 | 930 | 672 | 0.7 | – | – | – | – |
| CC(=O)N[C@@H](CCCNC(=N)N)C(=O)N[C@H]1CSSC[C@@H](C(N)=O)NC(=O)[C@H](Cc2c[nH]c3ccccc23)NC(=O)[C@H](CCCNC(=N)N)NC(=O)[C@@H](Cc2ccccc2)NC(=O)[C@H](Cc2cncn2C)NC(=O)[C@@H](C)NC1=O [Compound 5, Ac-Arg-cyclo[Cys-D-Ala-His(3-Me)-D-Phe-Arg-Trp-Cys]-NH2] | 350 | – | 4 | – | 945 | – | – | 406 | 4.1 | 1080 | 1.15 |
| CC(=O)N[C@@H](CCCNC(=N)N)C(=O)N[C@H]1CSSC[C@@H](C(N)=O)NC(=O)[C@H](Cc2c[nH]c3ccccc23)NC(=O)[C@H](CCCNC(=N)N)NC(=O)[C@@H](Cc2ccccc2)NC(=O)[C@H](CCCNC(=N)N)NC(=O)[C@@H](C)NC1=O [Compound 10, Ac-Arg-cyclo[Cys-D-Ala-Arg-D-Phe-Arg-Trp-Cys]-NH2] (Ac-RC[dA]R[dF]RWC-NH2; disulfide 2-8) | 1.45 | 3.9 | 2.31 | 6.2 | – | – | 2.7 | – | – | – | – |
| CC(=O)N[C@@H](CCCNC(=N)N)C(=O)N[C@H]1CSSC[C@@H](C(N)=O)NC(=O)[C@H](Cc2c[nH]c3ccccc23)NC(=O)[C@H](CCCNC(=N)N)NC(=O)[C@@H](Cc2ccccc2)NC(=O)[C@H](Cc2ccc(O)cc2)NC(=O)[C@@H](C)NC1=O [Compound 11, Ac-Arg-cyclo[Cys-D-Ala-Tyr-D-Phe-Arg-Trp-Cys]-NH2] (Ac-RC[dA]Y[dF]RWC-NH2; disulfide 2-8) | >22.2 | > 1000 | 6.67 | 301 | – | – | 45.1 | – | – | – | – |

Further lines, with some results ahead:

| Ratios of EC50 values MC ¾ (MC3R) | EC50 (MC3R; [1]) [nM] | Ratios of EC50 values MC ¼ (MC1R) | EC50 (MC1R; [2]) [nM] | Ratios of EC50 values MC 5/4 (MC5R) | EC50 (MC5R; [3]) [nM] | EC50 (MC4R; [4]) [nM] | SMILES | EC50 (MC3R) [nM] | EC50 (MC1R) [nM] | EC50 (MC5R) [nM] | EC50 (MC4R) [nM] |
| --- | --- | --- | --- | --- | --- | --- | --- | --- | --- | --- | --- |
| 0.96 | 0.96 | 0.69 | 0.69 | 420 | 420 | 1 | CC[C@@H](C)[C@H]1NC(=O)[C@@H](NC(=O)[C@H](CCCNC(=N)N)NC(C)=O)CSSC[C@@H](C(N)=O)NC(=O)[C@H](Cc2c[nH]c3ccccc23)NC(=O)[C@H](CCCNC(=N)N)NC(=O)[C@@H](Cc2ccccc2)NC(=O)[C@H](Cc2c[nH]cn2)NC1=O [Compound 2, Ac-Arg-cyclo[Cys-D-Ile-His-D-Phe-Arg-Trp-Cys]-NH2] | – | – | – | – |
| 1.19 | 1.59 | 0.93 | 1.25 | 584 | 782 | 1.34 | CC(=O)N[C@@H](CCCNC(=N)N)C(=O)N[C@H]1CSSC[C@@H](C(N)=O)NC(=O)[C@H](Cc2c[nH]c3ccccc23)NC(=O)[C@H](CCCNC(=N)N)NC(=O)[C@@H](Cc2ccccc2)NC(=O)[C@H](Cc2c[nH]cn2)NC(=O)[C@@H](C(C)C)NC1=O [Compound 4, Ac-Arg-cyclo[Cys-D-Val-His-D-Phe-Arg-Trp-Cys]-NH2] | – | – | – | – |
